Assay results published in ChEMBL document CHEMBL4359931, “Synthesis, biological evaluation and molecular docking studies of new amides of 4-bromothiocolchicine as anticancer agents” (Bioorg Med Chem, 2019).
Calls of active or inactive are those of the source. The rule behind the calls is not given here.

Legend:
[1] = Antiproliferative activity against human ALL5 cells assessed as reduction in cell viability incubated for 120 hrs by MTT assay; format: functional, cell-based; settings: ALL5, 120 h
[2] = system: A549; experiment: Antiproliferative activity against human A549 cells assessed as reduction in cell viability incubated for 120 hrs by MTT assay; format: functional, cell-based; settings: A549, 120 h
[3] = system: MCF7; experiment: Antiproliferative activity against human MCF7 cells assessed as reduction in cell viability incubated for 120 hrs by MTT assay; format: functional, cell-based; settings: MCF7, 120 h
[4] = system: LoVo; experiment: Antiproliferative activity against human LoVo cells assessed as reduction in cell viability incubated for 120 hrs by MTT assay; format: functional, cell-based
[5] = Antiproliferative activity against human LoVo/DX cells assessed as reduction in cell viability incubated for 120 hrs by MTT assay; format: functional, cell-based
[6] = system: BALB/3T3; experiment: Antiproliferative activity against mouse BALB/3T3 cells assessed as reduction in cell viability incubated for 120 hrs by MTT assay; format: cell-based; settings: BALB/3T3, 120 h
[7] = Selectivity index, ratio of IC50 of mouse BALB/3T3 cells to IC50 of human ALL5 cells
[8] = Selectivity index, ratio of IC50 of mouse BALB/3T3 cells to IC50 of human A549 cells
[9] = Selectivity index, ratio of IC50 of mouse BALB/3T3 cells to IC50 of human MCF7 cells; format: toxicity; settings: BALB/3T3 cells versus MCF7 cells, read-out: Ratio IC50
[10] = Selectivity index, ratio of IC50 of mouse BALB/3T3 cells to IC50 of human LoVo cells; format: toxicity; settings: BALB/3T3 cells versus LoVo cells, read-out: Ratio IC50
[11] = Selectivity index, ratio of IC50 of mouse BALB/3T3 cells to IC50 of human LoVo/DX cells; format: toxicity; settings: BALB/3T3 cells versus LoVo/DX cells, read-out: Ratio IC50
[12] = Resistance index, ratio of IC50 of human LoVo/DX cells to IC50 of human LoVo cells; format: functional
[13] = Cell cycle arrest in human ALL5 cells assessed as accumulation in G2 phase at 5 times of antiproliferative IC50 incubated for 24 hrs by propidium iodide based flow cytometry (reference value: 10.6 %); format: functional
[14] = Cell cycle arrest in human ALL5 cells assessed as accumulation in G2 phase at 5 times of antiproliferative IC50 incubated for 48 hrs by propidium iodide based flow cytometry (reference value: 11.2 %); format: functional
[15] = Cell cycle arrest in human ALL5 cells assessed as accumulation in G2 phase at 5 times of antiproliferative IC50 incubated for 72 hrs by propidium iodide based flow cytometry (reference value: 11.3 %); format: functional
[16] = Cell cycle arrest in human ALL5 cells assessed as accumulation in G1 phase at 5 times of antiproliferative IC50 incubated for 24 hrs by propidium iodide based flow cytometry (reference value: 68.1 %); format: functional
[17] = Cell cycle arrest in human ALL5 cells assessed as accumulation in G1 phase at 5 times of antiproliferative IC50 incubated for 48 hrs by propidium iodide based flow cytometry (reference value: 67.4 %); format: functional
[18] = Cell cycle arrest in human ALL5 cells assessed as accumulation in G1 phase at 5 times of antiproliferative IC50 incubated for 72 hrs by propidium iodide based flow cytometry (reference value: 59.7 %); format: functional
[19] = Cell cycle arrest in human ALL5 cells assessed as accumulation in subG1 phase at 5 times of antiproliferative IC50 incubated for 24 hrs by propidium iodide based flow cytometry (reference value: 10.5 %); format: functional
[20] = Cell cycle arrest in human ALL5 cells assessed as accumulation in subG1 phase at 5 times of antiproliferative IC50 incubated for 48 hrs by propidium iodide based flow cytometry (reference value: 11 %); format: functional
[21] = Cell cycle arrest in human ALL5 cells assessed as accumulation in subG1 phase at 5 times of antiproliferative IC50 incubated for 72 hrs by propidium iodide based flow cytometry (reference value: 15.5 %); format: functional
[22] = system: MCF7; experiment: Cell cycle arrest in human MCF7 cells assessed as accumulation in G2 phase at 5 times of antiproliferative IC50 incubated for 24 hrs by propidium iodide based flow cytometry (reference value: 22.4 %); format: functional
[23] = system: MCF7; experiment: Cell cycle arrest in human MCF7 cells assessed as accumulation in G2 phase at 5 times of antiproliferative IC50 incubated for 48 hrs by propidium iodide based flow cytometry (reference value: 16 %); format: functional
[24] = system: MCF7; experiment: Cell cycle arrest in human MCF7 cells assessed as accumulation in G2 phase at 5 times of antiproliferative IC50 incubated for 72 hrs by propidium iodide based flow cytometry (reference value: 18.6 %); format: functional
[25] = system: MCF7; experiment: Cell cycle arrest in human MCF7 cells assessed as accumulation in G1 phase at 5 times of antiproliferative IC50 incubated for 24 hrs by propidium iodide based flow cytometry (reference value: 49.9 %); format: functional
[26] = system: MCF7; experiment: Cell cycle arrest in human MCF7 cells assessed as accumulation in G1 phase at 5 times of antiproliferative IC50 incubated for 48 hrs by propidium iodide based flow cytometry (reference value: 40.8 %); format: functional
[27] = system: MCF7; experiment: Cell cycle arrest in human MCF7 cells assessed as accumulation in G1 phase at 5 times of antiproliferative IC50 incubated for 72 hrs by propidium iodide based flow cytometry (reference value: 58 %); format: functional
[28] = system: MCF7; experiment: Cell cycle arrest in human MCF7 cells assessed as accumulation in subG1 phase at 5 times of antiproliferative IC50 incubated for 24 hrs by propidium iodide based flow cytometry (reference value: 7.79 %); format: functional
[29] = system: MCF7; experiment: Cell cycle arrest in human MCF7 cells assessed as accumulation in subG1 phase at 5 times of antiproliferative IC50 incubated for 48 hrs by propidium iodide based flow cytometry (reference value: 9.19 %); format: functional
[30] = system: MCF7; experiment: Cell cycle arrest in human MCF7 cells assessed as accumulation in subG1 phase at 5 times of antiproliferative IC50 incubated for 72 hrs by propidium iodide based flow cytometry (reference value: 3.59 %); format: functional
[31] = system: MCF7; experiment: Cell cycle arrest in human MCF7 cells assessed as accumulation in S phase at 5 times of antiproliferative IC50 incubated for 24 hrs by propidium iodide based flow cytometry (reference value: 19.9 %); format: functional
[32] = system: MCF7; experiment: Cell cycle arrest in human MCF7 cells assessed as accumulation in S phase at 5 times of antiproliferative IC50 incubated for 48 hrs by propidium iodide based flow cytometry (reference value: 34 %); format: functional
[33] = system: MCF7; experiment: Cell cycle arrest in human MCF7 cells assessed as accumulation in S phase at 5 times of antiproliferative IC50 incubated for 72 hrs by propidium iodide based flow cytometry (reference value: 19.8 %); format: functional
[34] = Cell cycle arrest in human ALL5 cells assessed as accumulation in S phase at 5 times of antiproliferative IC50 incubated for 24 hrs by propidium iodide based flow cytometry (reference value: […]); format: functional
[35] = Cell cycle arrest in human ALL5 cells assessed as accumulation in S phase at 5 times of antiproliferative IC50 incubated for 48 hrs by propidium iodide based flow cytometry (reference value: 10.3 %); format: functional
[36] = Cell cycle arrest in human ALL5 cells assessed as accumulation in S phase at 5 times of antiproliferative IC50 incubated for 72 hrs by propidium iodide based flow cytometry (reference value: 13.5 %); format: functional
[37] = species: Homo sapiens; experiment: Induction of apoptosis in human ALL5 cells assessed as reduction in 116 kDa PARP expression at 26.5 uM incubated for 24 and 48 hrs by immunoblot analysis; format: functional, cell-based
[38] = species: Homo sapiens; experiment: Induction of apoptosis in human ALL5 cells assessed as increase in 85 kDa PARP expression at 26.5 uM incubated for 24 and 48 hrs by immunoblot analysis; format: functional, cell-based
[39] = species: Homo sapiens; experiment: Induction of cell cycle arrest in human ALL5 cells assessed as increase in 4 N DNA at 5 times of antiproliferative IC50 incubated for 24 hrs by propidium iodide based flow cytometry; format: functional
[40] = species: Homo sapiens; experiment: Induction of cell cycle arrest in human ALL5 cells assessed as increase in 4 N DNA at 5 times of antiproliferative IC50 incubated for 48 hrs by propidium iodide based flow cytometry; format: functional
[41] = species: Homo sapiens; experiment: Induction of cell death in human ALL5 cells assessed as decrease in 4 N DNA at 5 times of antiproliferative IC50 incubated for 72 hrs by propidium iodide based flow cytometry; format: functional

Work on `COCC(=O)N[C@H]1CCc2c(Br)c(OC)c(OC)c(OC)c2-c2ccc(SC)c(=O)cc21` yielded an IC50 [1] of 5.3 nM, an IC50 [2] of 10.2 nM and an IC50 [3] of 11.4 nM. The IC50 [4] was 7.6 nM, the IC50 [5] was 71.2 nM and the IC50 [6] was 11.4 nM. The “Ratio IC50” value [7] was 2.2, the “Ratio IC50” value [8] was 1.1 and the selectivity ratio [9] was 1. The selectivity ratio [10] was 1.5, the selectivity ratio [11] was 0.2 and the “Ratio IC50” value [12] was 9.3. The Activity [13] was 16.5%, the Activity [14] was 20.6% and the Activity [15] was 8.92%. It also gave an Activity [16] of 52.3%, an Activity [17] of 35% and an Activity [18] of 29.3%. It also gave an Activity [19] of 17.1%, an Activity [20] of 29.1% and an Activity [21] of 36.8%. The Activity [22] was 74.7%, the Activity [23] was 54.3% and the Activity [24] was 65%. The Activity [25] was 9.68%, the Activity [26] was 11.9% and the Activity [27] was 11.9%. For the same compound, the Activity [28] was 6.3%, the Activity [29] was 13.5% and the Activity [30] was 15.1%. It also gave an Activity [31] of 9.28%, an Activity [32] of 20.3% and an Activity [33] of 7.98%. It also gave an Activity [34] of 14.1%, an Activity [35] of 15.3% and an Activity [36] of 25%. For the same compound, the Activity [37] was “Active”, the Activity [38] was “Active” and the Activity [39] was “Active”. For the same compound, the Activity [40] was “Active” and the Activity [41] was “Active”.
Compound `CCC(=O)N[C@H]1CCc2c(Br)c(OC)c(OC)c(OC)c2-c2ccc(SC)c(=O)cc21` has an IC50 [1] of 8.5 nM, an IC50 [2] of 10.5 nM and an IC50 [3] of 11.2 nM. The IC50 [4] was 7.2 nM, the IC50 [5] was 87.2 nM and the IC50 [6] was 11.2 nM. For the same compound, the “Ratio IC50” value [7] was 1.3, the “Ratio IC50” value [8] was 1.1 and the selectivity ratio [9] was 1. For the same compound, the selectivity ratio [10] was 1.6, the selectivity ratio [11] was 0.1 and the “Ratio IC50” value [12] was 12.1. The Activity [13] was 17.2%, the Activity [14] was 17.5% and the Activity [15] was 8.93%. The Activity [16] was 52.4%, the Activity [17] was 35% and the Activity [18] was 25.7%. It also gave an Activity [19] of 17.4%, an Activity [20] of 33% and an Activity [21] of 45.8%. For the same compound, the Activity [22] was 74.3%, the Activity [23] was 63.7% and the Activity [24] was 53.8%. The Activity [25] was 12%, the Activity [26] was 15% and the Activity [27] was 12.2%. The Activity [28] was 6.15%, the Activity [29] was 12.5% and the Activity [30] was 17.7%. It also gave an Activity [31] of 7.61%, an Activity [32] of 8.78% and an Activity [33] of 16.3%. For the same compound, the Activity [34] was 12.9%, the Activity [35] was 14.5% and the Activity [36] was 19.5%. The Activity [39] was “Active”, the Activity [40] was “Active” and the Activity [41] was “Active”.
